The subject of data set [1] is B16/F0 murine melanoma cells. The data set is described as follows: In-vitro tumor-cell uptake, melanoma cells. The conditions noted are these: for % active: active part of in-vitro uptake, 37° C. vs 4° C. The class given is cell-based. On the procedure:
In-Vitro Tumor-Uptake Studies. Tumor-cell uptake studies in B16/F0 murine melanoma cells were performed with complexes Tc-(Compound A-D and H-M) at 37° C. and 4° C. Additionally, tumor-cell uptake of complex Tc-(Compound A) was investigated in another rapidly dividing MCF-7 human breast cancer cell line.
In-Vitro Cell Studies. Murine B16/F0 melanoma cells and human MCF-7 breast cancer cells were obtained from American Type Culture Collection, Manassas Va., (ATCC) and were grown in T-175 flasks in 14 mL Dulbecco's Modified Eagle Medium (D-MEM; Gibco, Life Technology, Gaithersburg, Md.) containing 4500 mg/L D-glucose, L-glutamine, and pyridoxine hydrochloride, 110 mg/L sodium pyruvate, 10% fetal bovine serum (FBS), 0.2% gentamicin and 0.5% penicillin-streptomycin solution. All cells were harvested from cell culture flasks by trypsinization with 1 mL trypsin-EDTA solution (0.25% trypsin, 1 mM EDTA×4 Na) (Gibco). After being washed with 12 mL Dulbecco's Phosphate-Buffered Saline (PBS) (Gibco), pH 7.2 (Ca^2+- and Mg^2+-free; g/L KCl, 0.20; KH2PO4, 0.20; NaCl, 8.00; Na2HPO4, 1.15), the cells were counted and resuspended in 8 mL S-MEM (Gibco) (Ca^2+ free, with reduced Mg^2+ content) and stored at 4° C. until use.
For in-vitro tumor-cell accumulation studies, 5×10^6 cells in polypropylene test tubes were incubated at 37° C. or 4° C., with intermittent agitation with 1-2 μCi (5 μL) ^99mTc-complex Tc-(Compound A-D) in a total volume of 350 μL S-MEM. At appropriate time intervals the tubes were vortexed and 8-μL samples were layered on 350 μL cold FBS in a 400-μL Eppendorf microcentrifuge tube. After centrifugation at 15,000 rpm for 2 min, the tubes were frozen in a dry ice-acetone bath. While still frozen, the bottom tip of the microcentrifuge tube containing the cell pellet was cut and placed in a counting tube. The remaining portion of the tube with the supernatant was placed in a separate counting tube. Both fractions were counted for radioactivity in a γ-counter (WALLAC, 1480 WIZARD 3″™). The amount of supernatant in the cell pellet was determined to be <1% in separate experiments. The percentage cell uptake of the ^99mTc-complex was calculated as: % uptake=[cpm(pellet)]/[cpm(pellet)+cpm(supernatant)]×100

The subject of the next data set is B16/F0 murine melanoma. Briefly: In-vivo tumor uptake and biodistribution. Further details: species or system C57B16 mice. On the procedure: In-Vivo Tumor Uptake. To study the tumor uptake of ^99mTc-complexes, Tc-(Compound A-D and J-K), in vivo, biodistribution experiments at 1 h and 6 h after their administration were carried out in C57B16 mice with palpable B16 melanoma nodules. The biodistribution data including melanoma/nontumor (M/NT) ratios for selected organs are summarized in Table 4 and 5 as percentage injected dose per gram ([…]).
Animal Studies. All animal experiments were performed in compliance with the Principles of Laboratory Animal Care (NIH publication #85-23, revised 1985). Biodistribution studies and tumor-uptake measurements were performed in C57B16 mice (15 to 20 g) bearing the B16/F0 murine melanoma on the hind limb. See for example the studies described in, which are hereby incorporated by reference, Brandau, W.; Niehoff, T.; Pulawski, P.; Jonas, M.; Dutschka, K.; Sciuk, J.; Coenen, H. H.; Schober, O. Structure Distribution Relationship of Iodine-123-Iodobenzamides as Tracers for the Detection of Melanotic Melanoma. J. Nucl. Med. 1996, 37, 1865-1871; Mohanmmed, A.; Nicholl, C.; Titsch, U.; Eisenhut, M. Radiojodinated N-(Alkylaminoalkyl)-Substituted 4-Methoxy-, 4-Hydroxy-, and 4-Aminobenzamides: Biological Investigations for the Improvement of Melanoma-Imaging Agents. Nucl. Med. Biol. 1997, 24, 373-380; Titsch, U.; Mohammed, A.; Wagner, S.; Oberdorfer, F.; Eisenhut, M. Syntheses of N-(2-Diethylaminoethyl)benzamides Suitable for ^99mTc Complexation. J. Labelled Compd. Radiopharm. 1997, 40, 416-418; Dittmann, H.; Coenen, H. H.; Zölzer, F.; Dutschka, K.; Brandau, W.; Streffer, C. In Vitro Studies on the Cellular Uptake of Melanoma Imaging Aminoalkyl-iodobenzamide Derivatives (ABA). Nucl. Med. Biol. 1999, 26, 51-56; and Michelot, J. M.; Moreau, M. F. C.; Veyre, A. J.; Bonafous, J. F.; Bacin, F. J.; Madelmont, J. C.; Bussiere, F.; Souteyrand, P. A.; Mauclaire, L. P.; Chossat, F. M.; Papon, J. M.; Labarre, P. G.; Kauffmann, Ph.; Plagne, R. J. Phase II Scintigraphic Clinical Trial of Malignant Melanoma and Metastases with Iodine-123-N-(2-Diethylaminoethyl 4-Iodobenzamide). J. Nucl. Med. 1993, 34, 1260-1266. The tumor cells (B16/F0), obtained from ATCC, were washed with PBS and transplanted subcutaneously on the left hind flank by an inoculation of 0.5×10^6 cells (0.1 mL). Ten to 14 days later the animals developed palpable tumor nodules 3 to 5 mm in diameter. The biodistribution studies were carried out by tail-vein injection of 25 to 30 μCi (0.05 to 0.1 mL) of the ^99mTc-labeled complexes Tc-(Compound A-D, H, J, K or M). At the designated time after tail-vein administration, the animals were weighed and sacrificed. The organs and tumors were harvested and, when appropriate, blotted dry, weighed, and counted in a gamma counter along with technetium-99m standards of the injected dose. The results are expressed as % ID/g tissue (Table 4 and 5)

For `CCCCN(CCCC)CCCN(CCSC(c1ccccc1)(c1ccccc1)c1ccccc1)CC(=O)NCCSC(c1ccccc1)(c1ccccc1)c1ccccc1` [Compound D, N-[(3-dibutylaminopropyl)-N-(2-(2-(S-(triphenylmethyl)thio)ethyl)amino)-acetyl]-S-(triphenylmethyl)-2-aminoethanethiol], in data set [1], the “% Tumor uptake (In-vitro, 60 min) 4° C.” value is on record as 56 ± 2.7%; the “% Tumor uptake (In-vitro, 60 min) 37° C.” value is on record as 68 ± 2.3%; the “% active” value turned out to be 18%. Besides, in the data set with B16/F0 murine melanoma (mouse, in vivo), the “In-vivo M/Blood” value was determined as 4.3, the “In-vivo M/Lung” value is 1.5 and the “In-vivo M/Spleen” value is 1.4.
For the compound `CCN(CC)CCNC(=O)c1ccc(I)cc1` [IBZA, reference compound], in data set [1], the “% Tumor uptake (In-vitro, 60 min) 4° C.” value was 28 ± 1.4% and the “% Tumor uptake (In-vitro, 60 min) 37° C.” value came to 26 ± 1.4%. Besides, the “In-vivo Tumor uptake, Melanoma” value in the data set on B16/F0 murine melanoma (60 min) came out at 5.5 % I.D./g. For the same compound, the “In-vivo M/Blood” value with B16/F0 murine melanoma (melanoma/blood ratio, 60 min) is 8. Besides, the “In-vivo M/Lung” value in the data set on B16/F0 murine melanoma (melanoma/lung ratio, 60 min) is reported as <1. Also, in the data set with B16/F0 murine melanoma (melanoma/spleen ratio, 60 min), the “In-vivo M/Spleen” value is 1.
For `CCN(CC)CCCN(CCSC(c1ccccc1)(c1ccccc1)c1ccccc1)CC(=O)NCCSC(c1ccccc1)(c1ccccc1)c1ccccc1` [Compound C, N-[(3-diethylaminopropyl)-N-(2-(2-(S-(triphenylmethyl)thio)ethyl)amino)-acetyl]-S-(triphenylmethyl)-2-aminoethanethiol], in data set [1], the “% Tumor uptake (In-vitro, 60 min) 4° C.” value was 17 ± 1.5%; the “% Tumor uptake (In-vitro, 60 min) 37° C.” value came out at 62 ± 0.8%; the “% active” value is listed as 73%. Moreover, in the data set on B16/F0 murine melanoma (mouse, in vivo), the “In-vivo M/Blood” value is 7.7, the “In-vivo M/Lung” value came to 2.4 and the “In-vivo M/Spleen” value came out at 3.0.
On to `CCN(CC)CCN(CCSC(c1ccccc1)(c1ccccc1)c1ccccc1)CC(=O)NCCSC(c1ccccc1)(c1ccccc1)c1ccccc1` [Compound A, N-[(2-diethylaminoethyl)-N-(2-(2-(S-(triphenyl-methyl)thio)ethyl)amino)acetyl]-S-(triphenylmethyl)-2-aminoethane-thiol], for which, in data set [1], the “% Tumor uptake (In-vitro, 60 min) 4° C.” value turned out to be 33 ± 2.4%; the “% Tumor uptake (In-vitro, 60 min) 37° C.” value turned out to be 44 ± 1.6%; the “% active” value is on record as 25%. In the data set with B16/F0 murine melanoma (mouse, in vivo), the “In-vivo M/Blood” value is 7.6, the “In-vivo M/Lung” value is listed as 5.4 and the “In-vivo M/Spleen” value came to 4.2.
Turning to `CCCCN(CCCC)CCN(CCSC(c1ccccc1)(c1ccccc1)c1ccccc1)CC(=O)NCCSC(c1ccccc1)(c1ccccc1)c1ccccc1` [Compound B, N-[(2-dibutylaminoethyl)-N-(2-(2-(S-(triphenylmethyl)thio)ethyl)amino)-acetyl]-S-(triphenylmethyl)-2-aminoethanethiol], in data set [1], the “% Tumor uptake (In-vitro, 60 min) 4° C.” value was determined as 16 ± 1.3% and the “% Tumor uptake (In-vitro, 60 min) 37° C.” value stood at 8 ± 1.9%. In addition, in the data set with B16/F0 murine melanoma (mouse, in vivo), the “In-vivo M/Blood” value turned out to be 7.6, the “In-vivo M/Lung” value is 2.1 and the “In-vivo M/Spleen” value was 4.0.
Consider `O=C1CN(CCN2CCCCC2)CC[S][99Tc]2(=[O])[S]CC[N]12` (stereo not shown) [^99mTc-Compound J], for which, in the data set with B16/F0 murine melanoma (1 h post-injection), the biodistribution blood is 2.26 % ID/g, the biodistribution brain was determined as 0.52 % ID/g, the biodistribution heart is reported as 0.91 % ID/g and the biodistribution kidney is 4.26 % ID/g. In the data set with B16/F0 murine melanoma (1 h post-injection), this compound had a biodistribution liver of 14.9 % ID/g, a biodistribution lung of 2.50 % ID/g, a biodistribution melanoma of 5.26 % ID/g and a biodistribution muscle of 0.42 % ID/g. In the data set with B16/F0 murine melanoma (1 h post-injection), the biodistribution spleen is reported as 3.28 % ID/g, the mel/blood ratio was 2.3, the mel/liver ratio is reported as <1 and the mel/lung ratio worked out at 2.1. Also, the mel/spleen ratio with B16/F0 murine melanoma (1 h post-injection) is listed as 1.6. In the data set with B16/F0 murine melanoma (6 h post-injection), this compound came in with a biodistribution blood of 0.20 % ID/g, a biodistribution brain of 0.05 % ID/g, a biodistribution heart of 0.26 % ID/g and a biodistribution kidney of 2.31 % ID/g. Moreover, in the data set with B16/F0 murine melanoma (6 h post-injection), the biodistribution liver is on record as 4.62 % ID/g, the biodistribution lung came out at 0.31 % ID/g, the biodistribution melanoma is given as 3.33 % ID/g and the biodistribution muscle turned out to be 0.15 % ID/g. In addition, in the data set on B16/F0 murine melanoma (6 h post-injection), the biodistribution spleen was 0.20 % ID/g, the mel/blood ratio was 16.7, the mel/liver ratio is <1 and the mel/lung ratio worked out at 10.7. Also, the mel/spleen ratio in the data set with B16/F0 murine melanoma (6 h post-injection) was 16.7.
